Target: Voltage-dependent L-type calcium channel subunit alpha-1C (Cavia porcellus, UniProt O35505)
Assay: Antagonist activity at calcium channel in Cavia porcellus (guinea pig) ileum assessed as inhibition of KCl-induced muscle contraction at 10 mM; call rule not given here
Format: tissue-based

Sequence of Voltage-dependent L-type calcium channel subunit alpha-1C (O35505 whole entry): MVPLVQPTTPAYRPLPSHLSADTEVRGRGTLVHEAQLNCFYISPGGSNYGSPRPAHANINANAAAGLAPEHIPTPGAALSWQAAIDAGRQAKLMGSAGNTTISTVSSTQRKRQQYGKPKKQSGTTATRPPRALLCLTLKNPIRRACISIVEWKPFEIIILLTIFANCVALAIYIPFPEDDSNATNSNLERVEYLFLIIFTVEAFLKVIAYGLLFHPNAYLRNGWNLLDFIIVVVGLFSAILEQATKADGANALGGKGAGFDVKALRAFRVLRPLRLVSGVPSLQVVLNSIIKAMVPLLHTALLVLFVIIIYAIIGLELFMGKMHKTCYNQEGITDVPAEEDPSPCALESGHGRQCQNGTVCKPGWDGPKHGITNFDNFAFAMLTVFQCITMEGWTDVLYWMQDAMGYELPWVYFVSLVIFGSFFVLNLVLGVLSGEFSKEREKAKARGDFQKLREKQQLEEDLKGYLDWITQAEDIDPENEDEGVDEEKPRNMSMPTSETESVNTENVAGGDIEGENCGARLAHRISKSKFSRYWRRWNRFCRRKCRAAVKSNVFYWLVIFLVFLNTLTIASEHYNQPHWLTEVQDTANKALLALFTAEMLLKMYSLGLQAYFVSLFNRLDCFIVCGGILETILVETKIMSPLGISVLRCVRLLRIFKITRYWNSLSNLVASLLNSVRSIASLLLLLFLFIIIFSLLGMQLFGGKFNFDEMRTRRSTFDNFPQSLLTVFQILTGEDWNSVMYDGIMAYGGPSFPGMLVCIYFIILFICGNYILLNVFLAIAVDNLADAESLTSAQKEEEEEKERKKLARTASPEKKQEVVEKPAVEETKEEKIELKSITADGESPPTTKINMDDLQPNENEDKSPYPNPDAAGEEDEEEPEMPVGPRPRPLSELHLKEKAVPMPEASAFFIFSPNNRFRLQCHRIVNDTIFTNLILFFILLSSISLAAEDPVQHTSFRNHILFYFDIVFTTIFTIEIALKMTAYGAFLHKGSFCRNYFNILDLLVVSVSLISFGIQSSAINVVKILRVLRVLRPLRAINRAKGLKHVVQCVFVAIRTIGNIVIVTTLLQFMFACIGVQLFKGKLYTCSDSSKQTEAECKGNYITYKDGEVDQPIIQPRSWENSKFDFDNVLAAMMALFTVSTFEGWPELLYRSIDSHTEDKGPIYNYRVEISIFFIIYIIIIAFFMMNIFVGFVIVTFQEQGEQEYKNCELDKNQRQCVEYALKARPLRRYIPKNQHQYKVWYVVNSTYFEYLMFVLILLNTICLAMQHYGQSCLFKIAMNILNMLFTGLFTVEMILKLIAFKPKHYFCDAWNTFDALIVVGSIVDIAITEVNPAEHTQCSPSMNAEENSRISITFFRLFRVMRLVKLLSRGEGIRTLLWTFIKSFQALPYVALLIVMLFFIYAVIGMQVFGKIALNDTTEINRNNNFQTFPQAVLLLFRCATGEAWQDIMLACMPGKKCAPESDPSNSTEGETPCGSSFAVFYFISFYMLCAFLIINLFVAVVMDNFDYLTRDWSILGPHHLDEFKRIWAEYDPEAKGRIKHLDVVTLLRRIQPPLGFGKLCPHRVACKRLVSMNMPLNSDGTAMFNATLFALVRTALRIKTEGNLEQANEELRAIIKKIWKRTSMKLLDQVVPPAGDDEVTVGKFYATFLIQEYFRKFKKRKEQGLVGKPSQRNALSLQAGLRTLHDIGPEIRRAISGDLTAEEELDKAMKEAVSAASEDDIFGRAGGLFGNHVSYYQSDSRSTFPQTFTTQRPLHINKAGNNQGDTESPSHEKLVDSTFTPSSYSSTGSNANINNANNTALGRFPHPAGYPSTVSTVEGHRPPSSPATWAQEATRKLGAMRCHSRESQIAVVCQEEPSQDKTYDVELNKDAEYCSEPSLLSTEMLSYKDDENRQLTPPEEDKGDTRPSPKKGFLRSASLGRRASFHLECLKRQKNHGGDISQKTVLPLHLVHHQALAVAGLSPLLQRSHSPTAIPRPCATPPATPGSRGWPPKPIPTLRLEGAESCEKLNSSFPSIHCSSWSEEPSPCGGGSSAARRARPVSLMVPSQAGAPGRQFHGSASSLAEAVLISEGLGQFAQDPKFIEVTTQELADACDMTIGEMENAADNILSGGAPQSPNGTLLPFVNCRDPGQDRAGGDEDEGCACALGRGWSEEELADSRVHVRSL

COC(=O)C1=C(C)NC(C)=C(C(=O)OC)C1c1ccccc1[N+](=O)[O-] [NIFEDIPINE]
inhibition (INH): Active

— ChEMBL document CHEMBL3046773 (Med Chem Res, 2013)
